The test system of assay [1] is aspirin-induced damage to the stomach. The assay is described as follows: aspirin-induced damage to the stomach in the rat. The assay is classed as in vivo. Conditions: for average reduction in gastric damage: vs control group; for Gastric damage score, Mean / Gastric damage score (individual rat): aspirin about 600 mg/kg orally, after 5 hours; for Gastric damage score, Mean: mean of eight rats; for Gastric damage score (individual rat): single animals. Details: key to Gastric damage score (individual rat) / Gastric damage score, Mean: small haemorrhage 1, large haemorrhage 2, small ulcer 3, large ulcer 4 points. How it is done: Three groups each containing eight rats were given aspirin in 0.5% CMC orally at a dose of about 600 mg/kg (1.0 ml of 60 mg/ml). The first group (the control group) was additionally given 0.5% CMC. The second group was given compound P57AS3 at a dose rate of 100 mg/kg; and the third group (comparative group) was given cimetidine at a dose rate of 20 mg/kg. […] Damage was assessed on a scale in which each small haemorrhage scored one point; each large haemorrhage scored two points; each small ulcer scored three points; and each large ulcer scored four points.

In a further assay the target is T1, CCK-A receptor (Cavia porcellus, UniProt Q63931).
T1 construct: P57AS3 had no effect on resting tension of isolated guinea pig gallbladder, ileum or trachea; from tissue; host or cells: isolated guinea pig gallbladder
T1 sequence (Q63931 1-430): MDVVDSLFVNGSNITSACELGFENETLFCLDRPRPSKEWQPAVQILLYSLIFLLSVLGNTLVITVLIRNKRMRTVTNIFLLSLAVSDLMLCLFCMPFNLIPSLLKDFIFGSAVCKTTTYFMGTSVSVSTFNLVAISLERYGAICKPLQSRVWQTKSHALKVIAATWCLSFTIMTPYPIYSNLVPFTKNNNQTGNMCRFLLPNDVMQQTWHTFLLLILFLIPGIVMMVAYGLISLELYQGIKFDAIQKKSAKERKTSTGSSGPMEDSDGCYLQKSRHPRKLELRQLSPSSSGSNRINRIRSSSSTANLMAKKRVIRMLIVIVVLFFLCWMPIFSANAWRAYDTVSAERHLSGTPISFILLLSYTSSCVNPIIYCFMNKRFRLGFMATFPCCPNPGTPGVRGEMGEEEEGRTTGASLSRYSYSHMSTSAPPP
The assay is described as follows: CCK octapeptide-induced contractions of the gallbladder. Details: species or system guinea pig. Conditions: CCK-A receptor mediated. As to the method: (§1) Purified P57AS3 was examined for binding affinity to a variety of receptors, channels, and uptake sites in vitro. […], In isolated tissue studies, P57AS3 at concentrations ≦10 μM had no effect on the rate of spontaneously beating guinea pig right atria or on the force of contraction of electrically stimulated left atria. […] P57AS3 had no effect on resting tension of isolated guinea pig gallbladder, ileum or trachea, or on CCK octapeptide-induced contractions of the gallbladder (CCK-A receptor mediated), histamine induced contractions of the guinea pig ileum (H1 receptor mediated), or acetylcholine-induced contractions of the guinea pig ileum (M3 receptor mediated).

In assay [2] the test system is isolated guinea pig trachea. Put plainly: isolated tissue: resting tension of trachea. How it is done: as §1
Assay [3] relates to electrically stimulated left atria. Put plainly: isolated tissue: electrically stimulated left atria. On the set-up: species or system guinea pig. As to the method: as §1
Assay [4] concerns isolated guinea pig ileum. The assay is described as follows: isolated tissue: resting tension of ileum. As to the method: as §1
In assay [5] the test system is isolated guinea pig gallbladder. The assay is described as follows: isolated tissue: resting tension of gallbladder. How it is done:
as §1

For assay [6], the target named is T2, M3 receptor (Cavia porcellus, UniProt H0W1Z3).
T2 construct: acetylcholine-induced contractions of the guinea pig ileum (M3 receptor mediated); from tissue; host or cells: isolated guinea pig ileum
T2 sequence (H0W1Z3 1-590): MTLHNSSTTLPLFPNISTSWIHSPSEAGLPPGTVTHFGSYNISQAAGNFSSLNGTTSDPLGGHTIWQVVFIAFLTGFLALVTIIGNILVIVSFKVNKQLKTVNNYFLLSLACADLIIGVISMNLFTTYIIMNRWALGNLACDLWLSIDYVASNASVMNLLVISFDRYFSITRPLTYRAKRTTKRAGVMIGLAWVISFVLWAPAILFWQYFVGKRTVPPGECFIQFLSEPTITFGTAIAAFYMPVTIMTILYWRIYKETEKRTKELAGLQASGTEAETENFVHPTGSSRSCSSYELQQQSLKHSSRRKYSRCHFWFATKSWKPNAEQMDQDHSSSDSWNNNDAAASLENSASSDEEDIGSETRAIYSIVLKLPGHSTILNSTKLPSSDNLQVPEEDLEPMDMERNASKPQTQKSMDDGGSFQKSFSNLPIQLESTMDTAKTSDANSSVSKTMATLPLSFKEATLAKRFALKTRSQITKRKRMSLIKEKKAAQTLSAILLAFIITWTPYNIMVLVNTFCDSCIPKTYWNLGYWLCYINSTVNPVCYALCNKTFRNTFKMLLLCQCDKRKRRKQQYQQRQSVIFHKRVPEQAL
The assay is described as follows: acetylcholine-induced contractions of the guinea pig ileum. Conditions: M3 receptor mediated. How it is done:
as §1

Assay [7] deals with spontaneously beating guinea pig right atria. Put plainly: isolated tissue: spontaneously beating right atria. Conditions: concentrations ≦10 μM. As to the method:
as §1

The target of a further assay is T3, H1 receptor (Cavia porcellus, UniProt P31389).
T3 construct: histamine induced contractions of the guinea pig ileum (H1 receptor mediated); from tissue; host or cells: isolated guinea pig ileum
T3 sequence (P31389 whole entry): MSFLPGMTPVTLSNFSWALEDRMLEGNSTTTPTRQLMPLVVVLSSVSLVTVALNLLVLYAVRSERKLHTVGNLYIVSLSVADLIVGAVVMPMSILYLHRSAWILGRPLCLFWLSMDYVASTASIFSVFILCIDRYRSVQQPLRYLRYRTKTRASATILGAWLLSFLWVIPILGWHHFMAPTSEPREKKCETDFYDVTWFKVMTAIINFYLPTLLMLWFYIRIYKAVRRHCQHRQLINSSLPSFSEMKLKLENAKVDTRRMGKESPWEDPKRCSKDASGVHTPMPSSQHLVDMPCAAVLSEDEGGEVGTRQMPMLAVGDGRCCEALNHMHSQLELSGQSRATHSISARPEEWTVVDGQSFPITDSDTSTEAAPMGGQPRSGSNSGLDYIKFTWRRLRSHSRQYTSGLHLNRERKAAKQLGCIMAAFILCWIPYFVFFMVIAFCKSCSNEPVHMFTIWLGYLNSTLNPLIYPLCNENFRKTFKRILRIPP
The assay is described as follows: histamine induced contractions of the guinea pig ileum. Conditions: H1 receptor mediated. How it is done: as §1

A further assay relates to gastric acid secretion. The assay is described as follows: gastric acid secretion in the pylorus-ligated rat. The assay is classed as in vivo. As to the method:
The effect of both the spray dried extract (sap from Hoodia gordonii)-referred to hereinafter as […]-and the purified compound P57AS3 were examined for effects on gastric acid secretion in the pylorus-ligated rat. Male Sprague-Dawley derived CD rats, 175-230 g, were used. On the day before the test, rats were outfitted with stainless steel tail cups to prevent coprophagy, housed individually with water allowed ad lib, and fasted overnight (18 hr). In one test the […] (5 or 50 mg/kg), or cimetidine (10 mg/kg) or vehicle (water) was orally administered to the rats immediately before fasting. Water was removed 30 minutes prior to ligation on the morning of the test. […] In a second experiment, purified compound P57AS3 was administered intraduodenally (i.d.) at 1 or 10 mg/kg at the time of the pylorus ligation. In this experiment with intraduodenal administration of P57AS3, vehicle (DMSO), cimetidine (10 mg/kg) or P57AS3 (1 or 10 mg/kg) was administered immediately after ligation. The incisions were then closed with staples. In the experiments with subcutaneous administration of P57, vehicle (DMSO), cimetidine (10 mg/kg) or P57, 10 or 30 mg/kg were injected subcutaneously in the nape of the neck immediately after the incisions were closed. Two hours after ligation, the rats were killed, the contents of each stomach collected and cleaned by centrifugation (30 minutes at 2000×g), and the volume of gastric fluid in each stomach was determined. Using a Radiometer pH meter and autotitrator, the pH and acid concentration of each gastric sample was determined by titration to pH 7 with 0.1N NaOH. Results are expressed as μeq/hr/100 g (body weight) and % vehicle control.

Assay [8] relates to M3 receptor. The assay is described as follows: carbachol-induced contractions of the guinea pig trachea. Conditions: M3 receptor mediated, concentrations ≧1 μM. How it is done: as §1
The mark [9] stands for this setting: 10 mg/kg sc, 1 of 3 experiments.

The structures appear in SMILES notation. Several values for one entry are separate records, joined by “and”; a condition that tells them apart may be missing. Equal values may be shown once. Entries after “also recorded” stand apart in the source; their conditions may differ.

As for `C/C=C(\C)C(=O)O[C@@H]1C[C@H]2[C@@H](CC=C3C[C@@H](O[C@H]4C[C@H](OC)[C@H](O[C@H]5C[C@H](OC)[C@H](O[C@@H]6O[C@H](C)[C@@H](O)[C@H](OC)[C@H]6O)[C@@H](C)O5)[C@@H](C)O4)CC[C@@]32C)[C@@]2(O)CC[C@H](C(C)=O)[C@@]12C` [P57AS3, 3-O-[-β-D-thevetopyranosyl-(1→4)-β-D-cymaropyranosyl-(1→4)-β-D-cymaropyranosyl]-12β-O-tigloyloxy-14-hydroxy-14β-pregn-5-en-20-one], the “average reduction in gastric damage” value in [1] (100 mg/kg) was 91.5%. Further, the “Gastric damage score, Mean” value in assay [1] (oral 100 mg/kg) is given as 0.63. Further, the “Gastric damage score (individual rat)” value in [1] (oral 100 mg/kg) is 0 (6×) and 3 and 2. Also, the “effect on CCK octapeptide-induced contractions of the gallbladder” value on CCK-A receptor was “no effect”. Besides, the “effect on resting tension of trachea” value in assay [2] was “no effect”. Further, in [3] (concentrations of 1 μM and higher), the “effect on basal tension of electrically stimulated left atria” value was “intermittent and transient elevations”. Also, the “effect on the force of contraction of electrically stimulated left atria” value in assay [3] (concentrations ≦10 μM) is reported as “no effect”. Moreover, the “effect on resting tension of ileum” value in assay [4] is reported as “no effect”. Also, in [5], the “effect on resting tension of gallbladder” value is “no effect”. Also, the “effect on acetylcholine-induced contractions of the ileum” value on M3 receptor [6] is “no effect”. Moreover, in [7], the “effect on the rate of spontaneously beating right atria” value is “no effect”. Also, the “effect on histamine induced contractions of the ileum” value at H1 receptor was “no effect”. Moreover, the “effect on gastric acid secretion” value in the assay with gastric acid secretion (1 mg/kg i.d. at the time of pylorus ligation) was “no effect”; with gastric acid secretion (setting [9]), “significant decrease”. Besides, the “decrease of acid secretion (acid output)” value with gastric acid secretion (10 mg/kg i.d. at the time of pylorus ligation) was found to be 88%. Further, the “reduction of gastric acid secretion” value in the assay on gastric acid secretion (setting [9]) is 43%. For the same compound, the “effect on gastric acid output” value in the assay with gastric acid secretion (10 mg/kg sc, 2 of 3 experiments) is “not significantly different from vehicle-treated controls; also recorded: no effect”; with gastric acid secretion (30 mg/kg sc, one experiment), “not significantly different from vehicle-treated controls; also recorded: no effect”. The “Acid Output % Control mean ± sd” value in the assay on gastric acid secretion (Exp. II, 1 mg/kg id) is 109.0 ± 37.8 % Control; with gastric acid secretion (Exp. II, 10 mg/kg id) it was 12.4 ± 1.1 % Control; in the assay with gastric acid secretion (Exp. III, 10 mg/kg sc), 48.9 ± 29.2 % Control; in the assay with gastric acid secretion (Exp. IV, 10 mg/kg sc), 74.0 ± 38.0 % Control; in the assay on gastric acid secretion (Exp. V, 10 mg/kg sc), “*57.1 ± 19.8 % Control”; in the assay on gastric acid secretion (Exp. VI, 30 mg/kg sc), 63.7 ± 17.3 % Control. For the same compound, the “effect on carbachol-induced contractions of the trachea” value in the assay on M3 receptor [8] was “noncompetitively inhibited”.
On to `CN/C(=N/CCSCc1nc[nH]c1C)NC#N` [Cimetidine, cimetidine, reference compound], for which, in [1] (20 mg/kg), the “average reduction in gastric damage” value came to 93.2%. Further, in assay [1] (oral 20 mg/kg), the “Gastric damage score, Mean” value is 0.50; the “Gastric damage score (individual rat)” value was 0 (7×) and 4.
